Test results published in US20120122840A1, “COMPOUNDS AND THERAPEUTIC USES THEREOF” (Myrexis, Inc., priority 2009, published 2012).
pIC50: −log10 of the molar value.

Key:
JAK1 = biological target: T1, JAK1 (Homo sapiens, UniProt P23458); test: In vitro binding assays
T1 construct: Cellular proteins were prepared by mild sonication in lysis buffer; endogenous in cells

TTK = biological target: T2, TTK (Homo sapiens, UniProt P33981); test: TTK inhibition assay ([γ-33P]ATP transfer to phosphorylated MBP); assay type: biochemical; parameters: A. Recombinant TTK enzyme; settings: read-out: inhibition of the protein kinase activity of TTK, IC50
T2 sequence (P33981 1-857): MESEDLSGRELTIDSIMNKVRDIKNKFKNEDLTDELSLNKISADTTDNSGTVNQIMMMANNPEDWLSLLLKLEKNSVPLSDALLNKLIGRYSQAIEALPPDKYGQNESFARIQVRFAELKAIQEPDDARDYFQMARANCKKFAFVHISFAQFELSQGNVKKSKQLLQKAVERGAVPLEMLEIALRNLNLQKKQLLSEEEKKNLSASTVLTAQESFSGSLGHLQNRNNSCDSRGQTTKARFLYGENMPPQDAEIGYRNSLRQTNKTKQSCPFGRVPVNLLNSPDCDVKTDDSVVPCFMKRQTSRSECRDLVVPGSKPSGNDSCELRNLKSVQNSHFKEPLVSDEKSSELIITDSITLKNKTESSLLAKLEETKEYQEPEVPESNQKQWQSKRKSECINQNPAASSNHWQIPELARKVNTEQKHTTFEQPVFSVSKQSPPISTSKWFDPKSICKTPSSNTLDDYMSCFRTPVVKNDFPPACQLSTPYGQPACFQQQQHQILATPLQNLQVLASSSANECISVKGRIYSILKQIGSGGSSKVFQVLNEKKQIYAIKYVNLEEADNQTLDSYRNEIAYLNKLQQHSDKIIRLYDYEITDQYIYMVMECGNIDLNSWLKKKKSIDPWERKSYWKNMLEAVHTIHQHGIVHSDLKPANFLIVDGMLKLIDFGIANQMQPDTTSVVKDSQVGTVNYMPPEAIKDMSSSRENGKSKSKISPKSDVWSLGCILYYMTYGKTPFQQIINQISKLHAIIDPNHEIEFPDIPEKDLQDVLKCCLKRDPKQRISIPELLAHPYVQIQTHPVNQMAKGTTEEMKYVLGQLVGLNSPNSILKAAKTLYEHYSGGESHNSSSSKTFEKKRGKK
Method: The compounds of the invention were also tested in the following assay to determine TTK-inhibitory activity. This assay measures transfer of radioactive phosphate from ATP to a protein substrate in the presence or absence of a test compound.
MATERIALS: • A. Recombinant TTK enzyme; • B. Phosphorylated myelin basic protein (MBP); • C. [γ-^33P]ATP: 1 mCi/100 μL; • D. Positive Control: a proprietary compound known to have […] in this assay.
Final concentrations of reaction mixture components (50 μl total volume): 50 mM Tris-HCl, pH 7.5; 0.01% Triton X-100; 10 mM MgCl2; 25 ng TTK (˜4 nM); 5 μM Phosphorylated MBP; 40 μM ATP (1 μCi/well, adjusted ATP specific activity according to strength of radiolabeled ATP).
Mixes were assembled in the wells of a 96-well polypropylene plate as follows: 1 μL 50× compound to be tested; 39 μL 1.282× Reaction Mix; 10 μL 5×ATP Mix.
The following reaction/assay steps were then performed: • 1. Mix thoroughly and incubate at room temperature for 45 minutes; • 2. Add 70 μL/well, except in background wells, of 3% phosphoric acid to terminate reaction, and transfer 100 μL to P81 filter plate; • 3. Wash with 1% phosphoric acid, then dry the P81 filter plate completely; • 4. Add 100 μL/well MicroSint-20 (PerkinElmer #6013621) and seal; • 5.

T1 sequence (P23458 whole entry, species assumed): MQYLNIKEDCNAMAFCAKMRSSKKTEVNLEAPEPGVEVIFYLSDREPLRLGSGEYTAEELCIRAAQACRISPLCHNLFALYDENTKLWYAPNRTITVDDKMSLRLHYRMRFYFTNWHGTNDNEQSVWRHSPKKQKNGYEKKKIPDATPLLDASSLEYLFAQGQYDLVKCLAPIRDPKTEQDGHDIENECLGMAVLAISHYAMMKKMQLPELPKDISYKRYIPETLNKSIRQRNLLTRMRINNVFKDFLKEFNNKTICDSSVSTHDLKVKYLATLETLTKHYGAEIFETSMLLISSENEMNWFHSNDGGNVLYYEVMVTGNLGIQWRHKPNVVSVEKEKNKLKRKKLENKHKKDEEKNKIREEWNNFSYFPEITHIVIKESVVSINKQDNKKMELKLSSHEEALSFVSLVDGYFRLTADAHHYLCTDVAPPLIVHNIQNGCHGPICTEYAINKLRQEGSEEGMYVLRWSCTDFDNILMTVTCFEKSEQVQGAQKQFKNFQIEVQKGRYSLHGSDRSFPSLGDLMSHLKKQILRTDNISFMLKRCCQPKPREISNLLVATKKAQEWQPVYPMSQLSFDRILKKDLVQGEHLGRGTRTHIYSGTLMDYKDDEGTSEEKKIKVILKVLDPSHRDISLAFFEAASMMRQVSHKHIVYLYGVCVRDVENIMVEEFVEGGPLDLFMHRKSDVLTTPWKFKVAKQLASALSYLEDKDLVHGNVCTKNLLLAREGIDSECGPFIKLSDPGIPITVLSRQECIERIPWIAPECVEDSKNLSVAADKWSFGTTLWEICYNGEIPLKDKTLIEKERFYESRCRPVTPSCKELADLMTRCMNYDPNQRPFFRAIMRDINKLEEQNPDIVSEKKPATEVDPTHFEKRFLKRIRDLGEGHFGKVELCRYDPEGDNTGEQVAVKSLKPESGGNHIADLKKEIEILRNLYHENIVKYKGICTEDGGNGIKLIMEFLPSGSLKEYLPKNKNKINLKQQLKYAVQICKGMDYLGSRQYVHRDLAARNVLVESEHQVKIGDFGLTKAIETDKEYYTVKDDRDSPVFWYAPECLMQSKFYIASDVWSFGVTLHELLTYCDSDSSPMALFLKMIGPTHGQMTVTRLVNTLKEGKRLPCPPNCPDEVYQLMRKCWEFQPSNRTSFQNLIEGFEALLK

pIC50 (JAK1): 6.49
pIC50 (TTK): 8.10
SMILES: NCCCOc1ccc(Nc2nc(NC3CCCCC3)c3nc[nH]c3n2)cc1 [N2-[4-(3-aminopropoxy)phenyl]-N-6-cyclohexyl-9H-purine-2,6-diamine]
